Data as given in patent US10548861B2 (Academia Sinica, priority 2015, dated 2020).
Like-named read-outs stand apart in the source and are kept apart here.

Assays:
H209 = test: 72 hr cytotoxicity: SCLC classic; assay type: cell-based; settings: Homo sapiens, NCI-H209
[1] = tested on: normal cord blood CD34+ cells; test: Cytotoxicity on normal cord blood CD34+ cells; assay type: cell-based; settings: Homo sapiens, 72 h
Osteosarcoma cell lines = test: Cytotoxicity on sarcoma panel; assay type: cell-based; settings: Homo sapiens, osteosarcoma lines highly resistant to BO-1055 (BO-1055 3 of 5; doxorubicin two lines); read-out: IC50 range
H211 = test: 72 hr cytotoxicity: SCLC variant; assay type: cell-based; settings: Homo sapiens, NCI-H211
REC-1 [2] = test: Cytotoxicity: Mantle Cell Lymphoma; settings: Homo sapiens
H678 = test: 72 hr cytotoxicity: SCLC classic; assay type: cell-based; settings: Homo sapiens
[3] = tested on: spontaneous murine B-cell lymphoma; test: Cytotoxicity: lymphoma cells with no stromal support; settings: read-out: cytotoxicity IC50, Murine BCL, spontaneous CD19+
Saos-1 = test: Cytotoxicity: Osteosarcoma; settings: Homo sapiens, read-out: cytotoxic activity (IC50)
Mino [4] = test: Drug combination cytotoxicity with BO-1055; assay type: cell-based, human
H841 = test: 72 hr cytotoxicity: SCLC variant; assay type: cell-based; settings: Homo sapiens, NCI-H841
HBL2 [5] = test: Drug combination cytotoxicity with BO-1055; assay type: cell-based; settings: Homo sapiens, HBL2, 72 h, read-out: IC50 single drug
H69 = test: 72 hr cytotoxicity: SCLC classic; assay type: cell-based; settings: Homo sapiens, NCI-H69
REC-1 [6] = test: Drug combination cytotoxicity with BO-1055; assay type: cell-based, human
[7] = tested on: Ewing's sarcoma cell lines; test: Cytotoxicity on sarcoma panel; assay type: cell-based; settings: Homo sapiens, read-out: IC50 range
H524 = test: 72 hr cytotoxicity: SCLC variant; assay type: cell-based; settings: Homo sapiens, NCI-H524
BMMSC = test: 72 hr cytotoxicity: BM Mesenchyme; assay type: cell-based; settings: Homo sapiens, 72 h
H187 = test: 72 hr cytotoxicity: SCLC classic; assay type: cell-based; settings: Homo sapiens, NCI-H187
BCI-NSI hTERT = test: 72 hr cytotoxicity: Bronchial epithelium; assay type: cell-based; settings: Homo sapiens, 72 h
A673 = test: Cytotoxicity: Ewing's sarcoma; settings: Homo sapiens, A673, read-out: cytotoxic activity (IC50)
JEKO-1 = test: Drug combination cytotoxicity with BO-1055; assay type: cell-based; settings: Homo sapiens, JeKo-1, 72 h, read-out: IC50 single drug
NECB1 = test: Drug combination cytotoxicity with BO-1055; assay type: cell-based, human
U2OS = test: Cytotoxicity: Osteosarcoma; settings: Homo sapiens, read-out: cytotoxic activity (IC50)
H719 = test: 72 hr cytotoxicity: SCLC classic; assay type: cell-based; settings: Homo sapiens
H562 = test: 72 hr cytotoxicity: SCLC classic; assay type: cell-based; settings: Homo sapiens
TC-32 = test: Cytotoxicity: Ewing's sarcoma; settings: Homo sapiens, TC-32, read-out: cytotoxic activity (IC50)
Granta = test: Drug combination cytotoxicity with BO-1055; assay type: cell-based, human
[8] = tested on: Rhabdomyosarcoma cell lines; test: Cytotoxicity on sarcoma panel; assay type: cell-based; settings: Homo sapiens, read-out: IC50 range
H417 = test: 72 hr cytotoxicity: SCLC variant; assay type: cell-based; settings: Homo sapiens, NCI-H417
H526 = test: 72 hr cytotoxicity: SCLC variant; assay type: cell-based; settings: Homo sapiens, NCI-H526
H128 = test: 72 hr cytotoxicity: SCLC classic; assay type: cell-based; settings: Homo sapiens, NCI-H128
H60 = test: 72 hr cytotoxicity: SCLC classic; assay type: cell-based; settings: Homo sapiens
HBL2 [9] = test: Cytotoxicity: Mantle Cell Lymphoma; settings: Homo sapiens
FTE-hTERT = test: 72 hr cytotoxicity: Fallopian epithelium; assay type: cell-based; settings: Homo sapiens, 72 h
H889 = test: 72 hr cytotoxicity: SCLC classic; assay type: cell-based; settings: Homo sapiens, NCI-H889
Z-138 = test: Drug combination cytotoxicity with BO-1055; assay type: cell-based, human
H249 = test: 72 hr cytotoxicity: SCLC classic; assay type: cell-based; settings: Homo sapiens
Granta-519 = settings: TK, AEW, SOR, TOPO, publically accessible data (Broad, Sanger), read-out: cytotoxicity IC50; cited from earlier work
Ly10 = settings: TK, AEW, SOR, TOPO, publically accessible data (Broad, Sanger), read-out: cytotoxicity IC50; cited from earlier work
Mino [10] = settings: TK, AEW, SOR, TOPO, publically accessible data (Broad, Sanger), read-out: cytotoxicity IC50; cited from earlier work
[11] = Homo sapiens, 72 h, read-out: IC50 single drug

With `COc1cccc2c1C(=O)c1c(O)c3c(c(O)c1C2=O)C[C@@](O)(C(=O)CO)C[C@@H]3O[C@H]1C[C@H](N)[C@H](O)[C@H](C)O1` [Doxorubicin] the IC50 (H209) was 30 nM, the IC50 [1] was 200 nM and the IC50 (Osteosarcoma cell lines) was 25 to 90 nM. For the same compound, the IC50 (H211) was 150 nM, the IC50 (REC-1 [2]; Rec1) was 51 nM and the IC50 (REC-1 [2]; Rec1, read-out: cytotoxicity IC50) was 50 nM. It also gave an IC50 (H678) of 10 nM, an IC50 [3] of 124 nM and an IC50 (Saos-1) of 25 nM. The “interaction with BO-1055 (combo-1, combo-2)” value (shortened to “interaction”) (Mino [4]) was “both combinations were synergistic”, the IC50 (Mino [4]; Homo sapiens, MINO, 72 h, read-out: IC50 single drug) was 135 nM and the IC50 (H841) was 20 nM. The IC50 (HBL2 [5]) was 51 nM, the IC50 (H69) was 60 nM and the “interaction” value (REC-1 [6]) was “both combinations were antagonistic”. It also gave an IC50 (REC-1 [6]; Homo sapiens, Rec1, 72 h, read-out: IC50 single drug) of over 10000 nM, an IC50 [7] of 5 to 380 nM and an IC50 (H524) of 20 nM. The IC50 (BMMSC) was 450 nM, the IC50 (H187) was 30 nM and the IC50 (BCI-NSI hTERT) was 500 nM. The IC50 (A673) was 380 nM, the IC50 (JEKO-1) was 98 nM and the “interaction” value (NECB1) was “synergistic with combo-1 and antagonistic against combo-2”. For the same compound, the IC50 (NECB1; [11]) was 1230 nM, the IC50 (U2OS) was 90 nM and the IC50 (H719) was 90 nM. For the same compound, the IC50 (H562) was 170 nM, the IC50 (TC-32) was 5 nM and the “interaction” value (Granta) was “synergistic with combo-1 and antagonistic against combo-2”. It also gave an IC50 (Granta; [11]) of 257 nM, an IC50 [8] of 11 nM and an IC50 (H417) of 10 nM. The IC50 (H526) was 10 nM, the IC50 (H128) was 100 nM and the IC50 (H60) was 130 nM. The IC50 (HBL2 [9]; HBL2) was 28 nM, the IC50 (HBL2 [9]; HBL2, read-out: cytotoxicity IC50) was 30 nM and the IC50 (FTE-hTERT) was 6250 nM. The IC50 (H889) was 20 nM, the “interaction” value (Z-138) was “both combinations were synergistic” and the IC50 (Z-138; Homo sapiens, Z-138, 72 h, read-out: IC50 single drug) was 438 nM. It also gave an IC50 (H249) of 130 nM.
For `CNC(=O)c1cc(Oc2ccc(NC(=O)Nc3ccc(Cl)c(C(F)(F)F)c3)cc2)ccn1` [SOR], the IC50 (Granta-519) is given as 28000 nM, the IC50 (Ly10) is given as 28000 nM and the IC50 (Mino [10]) is given as 28000 nM.
